Data as given in ChEMBL document CHEMBL5131569, “SAGE-718: A First-in-Class N-Methyl-d-Aspartate Receptor Positive Allosteric Modulator for the Potential Treatment of Cognitive Impairment” (J Med Chem, 2022).
≈ marks a conversion by molar mass, not a printed value.

Tests used:
[1] = Plasma protein binding in dog after 15 mins by equilibrium dialysis method; assay type: ADME, cell-free, Canis lupus familiaris; settings: read-out: PPB (converted)
[2] = Aqueous solubility of compound in PBS incubated for 1 hr under shaking condition by HPLC-MS/MS analysis; assay type: physicochemical
[3] = target: Cytochrome P450 2D6 (Homo sapiens, UniProt P10635); assay: Inhibition of CYP2D6 (unknown origin); assay type: ADME
[4] = Drug concentration in CD-1 mouse plasma at 3 mg/kg, ip administered for 90 mins; assay type: ADME, organism-based
[5] = target: T1, Cytochrome P450 2B6 (Homo sapiens, UniProt P20813); assay: Inhibition of CYP2B6 (unknown origin); assay type: ADME
T1 sequence (P20813 whole entry): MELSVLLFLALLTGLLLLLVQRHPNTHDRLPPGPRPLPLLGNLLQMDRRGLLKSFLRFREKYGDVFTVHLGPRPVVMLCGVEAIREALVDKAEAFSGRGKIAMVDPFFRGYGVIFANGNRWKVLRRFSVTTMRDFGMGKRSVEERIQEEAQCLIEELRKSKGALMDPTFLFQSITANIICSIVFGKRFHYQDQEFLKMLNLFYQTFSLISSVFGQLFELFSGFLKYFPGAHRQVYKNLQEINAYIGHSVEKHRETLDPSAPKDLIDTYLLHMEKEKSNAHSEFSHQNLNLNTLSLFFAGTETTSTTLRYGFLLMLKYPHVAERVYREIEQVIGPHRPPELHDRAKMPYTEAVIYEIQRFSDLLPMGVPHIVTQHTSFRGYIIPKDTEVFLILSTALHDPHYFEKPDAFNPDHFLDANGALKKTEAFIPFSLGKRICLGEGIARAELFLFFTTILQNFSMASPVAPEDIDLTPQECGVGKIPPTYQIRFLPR

[6] = Drug concentration in CD-1 mouse plasma at 7.5 mg/kg, ip administered for 90 mins; assay type: ADME, organism-based
[7] = target: Glutamate NMDA receptor; GRIN1/GRIN2B (Homo sapiens, UniProt Q05586+Q13224); assay: Positive allosteric modulation of recombinant human GluN1/GluN2B receptor stably expressed in HEK293 cells assessed as increase in glycine/L-glutamate-induced channel current at -70 mV holding potential by whole cell patch clamp method; assay type: cell-based
[8] = system: Mus musculus; assay: Reversal of DOI-induced hyperlocomotion in CD-1 mouse assessed as reduction in distance travel at 7.5 mg/kg, ip administered 90 mins prior to DOI induction and measured upto 30 mins post DOI treatment (reference value: 7.8 +/- 0.8 meter); assay type: functional; settings: time <= 120 min, 2 h
[9] = Oral bioavailability in Beagle dog by LC-MS/MS analysis; assay type: ADME, organism-based, Canis lupus familiaris; settings: in vivo
[10] = Metabolic stability in human hepatocytes assessed as clearance at 10 uM measured upto 120 mins by LC-MS/MS analysis; assay type: ADME, cell-based, Hepatocyte; settings: 2 h
[11] = target: T2, Cytochrome P450 1A2 (Homo sapiens, UniProt P05177); assay: Inhibition of CYP1A2 (unknown origin); assay type: ADME
T2 sequence (P05177 whole entry): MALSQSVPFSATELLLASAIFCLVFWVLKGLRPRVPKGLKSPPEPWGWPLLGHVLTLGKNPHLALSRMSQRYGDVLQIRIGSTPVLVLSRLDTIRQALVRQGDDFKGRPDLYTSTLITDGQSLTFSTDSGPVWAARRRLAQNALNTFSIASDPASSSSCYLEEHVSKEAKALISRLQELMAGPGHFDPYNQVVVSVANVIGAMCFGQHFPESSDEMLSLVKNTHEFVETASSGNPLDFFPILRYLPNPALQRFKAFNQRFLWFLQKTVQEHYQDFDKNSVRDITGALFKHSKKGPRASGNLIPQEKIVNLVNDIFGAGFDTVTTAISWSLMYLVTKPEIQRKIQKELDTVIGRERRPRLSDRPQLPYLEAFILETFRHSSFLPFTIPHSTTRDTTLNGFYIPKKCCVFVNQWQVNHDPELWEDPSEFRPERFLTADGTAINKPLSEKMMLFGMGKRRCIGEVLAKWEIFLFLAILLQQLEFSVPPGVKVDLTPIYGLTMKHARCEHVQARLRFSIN

[12] = target: Cytochrome P450 2C19 (Homo sapiens, UniProt P33261); assay: Inhibition of CYP2C19 (unknown origin); assay type: ADME
[13] = Metabolic stability in rat liver microsomes assessed as intrinsic clearance at 10 uM preincubated for 5 mins followed by NADPH addition and measured upto 65 mins by LC-MS/MS analysis; assay type: ADME, Microsome; settings: time < 70 min, read-out: CLH
[14] = Metabolic stability in monkey hepatocytes assessed as clearance at 10 uM measured upto 120 mins by LC-MS/MS analysis; assay type: ADME, cell-based, Macaca mulatta, Hepatocyte; settings: rhesus monkey, 2 h
[15] = target: T3, Cytochrome P450 2C8 (Homo sapiens, UniProt P10632); assay: Inhibition of CYP2C8 (unknown origin); assay type: ADME
T3 sequence (P10632 whole entry): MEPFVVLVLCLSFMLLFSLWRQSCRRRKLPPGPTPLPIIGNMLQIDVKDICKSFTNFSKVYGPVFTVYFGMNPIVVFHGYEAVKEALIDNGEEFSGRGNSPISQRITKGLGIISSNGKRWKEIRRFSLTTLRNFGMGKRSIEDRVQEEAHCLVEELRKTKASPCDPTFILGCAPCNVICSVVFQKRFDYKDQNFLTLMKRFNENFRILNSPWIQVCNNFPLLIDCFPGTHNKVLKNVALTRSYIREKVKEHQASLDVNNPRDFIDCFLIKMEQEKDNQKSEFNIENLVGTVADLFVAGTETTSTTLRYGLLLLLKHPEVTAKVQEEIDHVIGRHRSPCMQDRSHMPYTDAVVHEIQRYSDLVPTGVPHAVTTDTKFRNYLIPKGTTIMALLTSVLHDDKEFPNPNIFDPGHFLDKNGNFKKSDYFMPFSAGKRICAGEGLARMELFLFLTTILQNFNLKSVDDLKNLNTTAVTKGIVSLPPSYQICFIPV

[16] = Drug concentration in CD-1 mouse plasma at 10 mg/kg, ip administered for 90 mins; assay type: ADME, organism-based
[17] = system: Mus musculus; assay: Reversal of DOI-induced hyperlocomotion in CD-1 mouse assessed as reduction in rearing at 3 mg/kg, ip administered 90 mins prior to DOI induction and measured upto 30 mins post DOI treatment (reference value: 59.8 +/- 8.6 Counts); assay type: functional; settings: time <= 120 min, 2 h
[18] = Ratio of drug concentration in ip dosed CD-1 mouse brain to plasma after 1 hr by LC-MS/MS analysis; assay type: ADME, organism-based; settings: brain and plasma
[19] = target: Ionotropic glutamate receptor NMDA 1/2C (Homo sapiens, UniProt Q05586+Q14957); assay: Positive allosteric modulation of recombinant human GluN1/GluN2C receptor stably expressed in HEK293 cells assessed as increase in glycine/L-glutamate-induced channel current at -70 mV holding potential by whole cell patch clamp method
[20] = Drug concentration in CD-1 mouse brain at 5 mg/kg, ip administered for 90 mins; assay type: ADME, organism-based; settings: read-out: Ct
[21] = Lipophilicity, logD of compound in MeOH at 20 uM by HPLC analysis; assay type: physicochemical
[22] = target: Cytochrome P450 2C9 (Homo sapiens, UniProt P11712); assay: Inhibition of CYP2C9 (unknown origin); assay type: ADME
Cytochrome P450 2C9, sequence (P11712 whole entry): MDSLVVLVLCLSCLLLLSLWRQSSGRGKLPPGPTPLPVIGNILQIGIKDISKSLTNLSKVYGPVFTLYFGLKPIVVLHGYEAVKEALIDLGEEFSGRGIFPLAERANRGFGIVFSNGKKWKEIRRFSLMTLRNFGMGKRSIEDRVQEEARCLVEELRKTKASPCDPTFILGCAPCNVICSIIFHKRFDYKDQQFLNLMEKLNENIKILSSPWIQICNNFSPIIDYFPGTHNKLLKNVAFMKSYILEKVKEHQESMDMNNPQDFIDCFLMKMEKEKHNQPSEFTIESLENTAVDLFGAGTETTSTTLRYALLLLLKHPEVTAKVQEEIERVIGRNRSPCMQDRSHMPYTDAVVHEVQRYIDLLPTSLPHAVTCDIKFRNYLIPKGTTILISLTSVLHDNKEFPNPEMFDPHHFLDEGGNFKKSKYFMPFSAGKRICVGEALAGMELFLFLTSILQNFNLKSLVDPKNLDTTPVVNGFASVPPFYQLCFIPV

Glutamate NMDA receptor; GRIN1/GRIN2B, sequence (Q13224 whole entry, other chains not shown): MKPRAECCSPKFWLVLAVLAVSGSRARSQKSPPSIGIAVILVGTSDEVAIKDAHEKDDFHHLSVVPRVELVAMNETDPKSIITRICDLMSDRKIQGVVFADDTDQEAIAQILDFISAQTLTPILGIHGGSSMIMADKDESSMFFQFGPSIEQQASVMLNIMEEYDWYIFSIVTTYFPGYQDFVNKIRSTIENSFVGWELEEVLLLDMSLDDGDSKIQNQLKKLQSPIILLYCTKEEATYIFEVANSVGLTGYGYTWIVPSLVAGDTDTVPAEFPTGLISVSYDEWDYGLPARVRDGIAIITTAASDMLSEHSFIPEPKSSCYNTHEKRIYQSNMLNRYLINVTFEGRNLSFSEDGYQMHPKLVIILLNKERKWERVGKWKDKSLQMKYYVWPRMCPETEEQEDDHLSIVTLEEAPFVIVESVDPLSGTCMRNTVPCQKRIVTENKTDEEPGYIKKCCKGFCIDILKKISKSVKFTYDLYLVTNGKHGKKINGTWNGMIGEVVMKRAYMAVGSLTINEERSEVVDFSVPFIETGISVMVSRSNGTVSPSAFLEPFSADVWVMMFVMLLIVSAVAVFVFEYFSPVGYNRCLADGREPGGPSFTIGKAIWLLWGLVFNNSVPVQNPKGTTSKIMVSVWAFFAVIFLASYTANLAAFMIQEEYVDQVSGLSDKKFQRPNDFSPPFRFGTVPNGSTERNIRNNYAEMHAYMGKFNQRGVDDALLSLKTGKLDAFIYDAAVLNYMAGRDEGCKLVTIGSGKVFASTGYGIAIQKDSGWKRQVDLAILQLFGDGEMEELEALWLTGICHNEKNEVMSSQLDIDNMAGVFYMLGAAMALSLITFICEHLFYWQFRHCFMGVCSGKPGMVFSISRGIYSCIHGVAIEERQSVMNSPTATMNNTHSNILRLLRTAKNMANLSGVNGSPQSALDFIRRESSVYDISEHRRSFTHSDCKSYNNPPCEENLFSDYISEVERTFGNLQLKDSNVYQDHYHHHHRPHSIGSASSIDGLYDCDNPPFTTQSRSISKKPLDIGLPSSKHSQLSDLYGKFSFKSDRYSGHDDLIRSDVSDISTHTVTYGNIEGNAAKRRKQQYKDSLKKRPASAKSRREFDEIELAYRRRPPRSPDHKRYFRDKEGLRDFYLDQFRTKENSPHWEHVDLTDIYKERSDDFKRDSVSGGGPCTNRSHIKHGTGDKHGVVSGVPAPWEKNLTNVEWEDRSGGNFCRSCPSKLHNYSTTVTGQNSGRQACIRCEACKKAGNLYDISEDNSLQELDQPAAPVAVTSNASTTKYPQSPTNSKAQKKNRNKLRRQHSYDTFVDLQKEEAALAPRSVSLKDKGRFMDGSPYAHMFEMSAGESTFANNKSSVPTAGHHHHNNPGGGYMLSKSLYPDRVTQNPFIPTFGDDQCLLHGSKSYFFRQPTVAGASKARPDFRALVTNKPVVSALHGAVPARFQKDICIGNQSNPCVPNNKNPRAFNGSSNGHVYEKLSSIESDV
Ionotropic glutamate receptor NMDA 1/2C, sequence (Q14957 whole entry, other chains not shown): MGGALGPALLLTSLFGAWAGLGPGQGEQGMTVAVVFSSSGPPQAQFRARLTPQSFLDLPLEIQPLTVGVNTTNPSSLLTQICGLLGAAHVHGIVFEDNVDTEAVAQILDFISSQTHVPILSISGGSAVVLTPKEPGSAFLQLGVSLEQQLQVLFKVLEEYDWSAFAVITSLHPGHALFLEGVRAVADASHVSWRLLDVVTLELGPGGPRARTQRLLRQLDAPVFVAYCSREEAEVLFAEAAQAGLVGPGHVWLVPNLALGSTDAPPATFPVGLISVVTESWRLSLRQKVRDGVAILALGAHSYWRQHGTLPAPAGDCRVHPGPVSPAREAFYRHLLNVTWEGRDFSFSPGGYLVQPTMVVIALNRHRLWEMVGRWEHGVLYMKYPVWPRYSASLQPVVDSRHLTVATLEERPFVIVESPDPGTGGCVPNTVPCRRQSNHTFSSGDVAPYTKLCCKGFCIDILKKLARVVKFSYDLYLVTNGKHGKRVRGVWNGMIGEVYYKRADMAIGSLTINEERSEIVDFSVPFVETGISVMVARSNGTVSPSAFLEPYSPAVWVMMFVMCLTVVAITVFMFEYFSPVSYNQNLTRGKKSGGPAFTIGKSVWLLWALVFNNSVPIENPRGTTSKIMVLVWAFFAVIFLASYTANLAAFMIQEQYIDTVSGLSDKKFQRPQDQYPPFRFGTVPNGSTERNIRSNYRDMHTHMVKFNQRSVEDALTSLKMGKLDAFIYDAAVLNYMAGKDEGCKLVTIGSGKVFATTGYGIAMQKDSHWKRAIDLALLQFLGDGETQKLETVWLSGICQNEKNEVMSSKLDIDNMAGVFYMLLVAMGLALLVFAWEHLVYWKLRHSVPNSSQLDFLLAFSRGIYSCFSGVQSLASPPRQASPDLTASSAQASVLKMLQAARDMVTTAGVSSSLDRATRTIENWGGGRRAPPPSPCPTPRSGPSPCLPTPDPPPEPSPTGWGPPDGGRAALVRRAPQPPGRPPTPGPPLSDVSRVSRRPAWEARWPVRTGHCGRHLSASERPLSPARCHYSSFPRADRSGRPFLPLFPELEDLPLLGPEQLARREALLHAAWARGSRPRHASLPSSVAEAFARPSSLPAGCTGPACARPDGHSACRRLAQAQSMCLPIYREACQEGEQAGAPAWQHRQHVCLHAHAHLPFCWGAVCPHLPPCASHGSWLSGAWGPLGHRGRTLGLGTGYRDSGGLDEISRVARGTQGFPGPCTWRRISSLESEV
Cytochrome P450 2D6, sequence (P10635 whole entry): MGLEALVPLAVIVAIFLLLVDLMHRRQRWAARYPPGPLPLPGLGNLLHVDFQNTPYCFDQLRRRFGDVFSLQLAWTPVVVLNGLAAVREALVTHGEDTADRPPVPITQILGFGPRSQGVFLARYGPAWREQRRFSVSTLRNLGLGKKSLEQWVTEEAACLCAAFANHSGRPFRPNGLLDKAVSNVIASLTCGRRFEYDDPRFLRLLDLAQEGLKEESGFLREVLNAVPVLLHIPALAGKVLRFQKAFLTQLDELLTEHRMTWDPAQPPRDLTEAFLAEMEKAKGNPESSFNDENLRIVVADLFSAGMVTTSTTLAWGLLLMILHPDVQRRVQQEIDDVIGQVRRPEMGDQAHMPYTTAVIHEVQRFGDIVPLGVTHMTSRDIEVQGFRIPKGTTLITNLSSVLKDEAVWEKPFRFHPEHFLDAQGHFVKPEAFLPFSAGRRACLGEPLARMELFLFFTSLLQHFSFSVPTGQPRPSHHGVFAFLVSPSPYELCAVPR
Cytochrome P450 2C19, sequence (P33261 whole entry): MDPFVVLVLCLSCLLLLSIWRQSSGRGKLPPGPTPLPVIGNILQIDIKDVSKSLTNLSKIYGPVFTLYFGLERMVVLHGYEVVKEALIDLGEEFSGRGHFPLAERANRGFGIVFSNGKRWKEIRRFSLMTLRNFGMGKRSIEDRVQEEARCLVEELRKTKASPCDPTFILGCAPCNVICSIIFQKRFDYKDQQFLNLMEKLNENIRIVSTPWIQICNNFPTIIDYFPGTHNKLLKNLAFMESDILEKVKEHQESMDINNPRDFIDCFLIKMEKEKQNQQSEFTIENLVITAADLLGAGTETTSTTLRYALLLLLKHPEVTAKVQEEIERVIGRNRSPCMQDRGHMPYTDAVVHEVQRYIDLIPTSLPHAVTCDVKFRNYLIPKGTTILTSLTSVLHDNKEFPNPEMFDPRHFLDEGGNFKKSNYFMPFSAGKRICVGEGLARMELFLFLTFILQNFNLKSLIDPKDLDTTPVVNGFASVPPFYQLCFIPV

fraction unbound at 0.25 h [1]: 0.028
solubility at 1 h [2]: 2.2 µM (≈ 1 µg/mL)
IC50 [3]: > 100 µM
concentration at 1.5 h [4]: 577 ng/mL
IC50 [5]: > 100 µM
concentration at 1.5 h [6]: 1590 ng/mL
EC50 [7]: 0.079 µM
bioavailability [9]: 30%
CLH [10]: 6.7 mL/min/kg
IC50 [11]: > 100 µM
IC50 [12]: > 100 µM
microsomal CLint at 10 µM [13]: 11 µL/min/mg
CLH [14]: 18.3 mL/min/kg
IC50 [15]: > 10 µM
concentration at 1.5 h [16]: 3210 ng/mL
Kp at 1 h [18]: 0.2
EC50 [19]: 0.15 µM
concentration at 1.5 h [20]: 894 ng/g
logD at 20 µM [21]: 6.2
IC50 [22]: > 100 µM
SMILES: C[C@H](CC[C@](C)(O)C(F)(F)F)[C@H]1CC[C@H]2[C@@H]3CC=C4C[C@@](C)(O)CC[C@]4(C)[C@H]3CC[C@]12C [DALZANEMDOR]
Activity [8]: 0.4 m
Activity [17]: 52.9 Counts
